In brackets after ≈: the same amount, converted by molar mass. Where two headings read alike, the source gives them in different places.
Tests used:
P. aeruginosa (1051575) [1] = assay: Potentiation of chloramphenicol activity; assay type: cell-based, Pseudomonas aeruginosa; settings: concentration of compound required with chloramphenicol 4 μg/mL
Protocol: (§1) This method requires the use of a 96-well plate: 100 μL of a liquid culture medium are placed in each well and then seeded with the microbial suspension prepared previously. The required volume to be seeded is calculated for an OD of 0.01, which corresponds to about 5×10^6 bacteria in each well. In this plate, the first line corresponds to a negative control (200 μL of sterile culture medium in each well), the second line corresponds to a positive control (100 μL of sterile culture medium+100 μL of the bacterial suspension), and the third line contains 192 μL of culture medium; 8 μL of compound of formula (I) to be tested are placed in each well. […] 92 μL of bacterial suspension are then added to lines 3 to 8. […] After 24 hours of incubation at 37° C., 40 μL of nitro tetrazolium iodide are added to each well to reveal the presence of live bacteria by staining the medium pink.
(§2) The procedure is identical to that indicated in Example 5 above. […]
(§3) The results are given in table V. They indicate the concentration of compound of formula (I) required to be able to restore the activity of the antibiotic under consideration.

P. aeruginosa (1051575) [2] = assay: Potentiation of erythromycin activity; assay type: cell-based, Pseudomonas aeruginosa; settings: concentration of compound required with erythromycin 2 μg/mL
Protocol: This method requires the use of a 96-well plate: 100 μL of a liquid culture medium are placed in each well and then seeded with the microbial suspension prepared previously. The required volume to be seeded is calculated for an OD of 0.01, which corresponds to about 5×10^6 bacteria in each well. In this plate, the first line corresponds to a negative control (200 μL of sterile culture medium in each well), the second line corresponds to a positive control (100 μL of sterile culture medium+100 μL of the bacterial suspension), and the third line contains 192 μL of culture medium; 8 μL of compound of formula (I) to be tested are placed in each well. Thereafter, a cascade dilution is performed from this line. […] (1 mg dissolved in 20 mL) are then added to each well of the lines 3 to 8 to obtain a final antibiotic concentration of 2 μg/mL. 92 μL of bacterial suspension are then added to lines 3 to 8. […] After 24 hours of incubation at 37° C., 40 μL of nitro tetrazolium iodide are added to each well to reveal the presence of live bacteria by staining the medium pink.
The procedure is identical to that indicated in Example 5 above. 8 μL of an antibiotic solution under consideration (1 mg dissolved in 20 mL) are added to obtain a final antibiotic concentration of 2 μg/mL instead of 8 μL of a doxycycline solution.
as §3

P. aeruginosa (1051575) [3] = assay: Potentiation of the doxycycline activity at 2 μg/mL; assay type: cell-based, Pseudomonas aeruginosa; settings: for MIC - P. aeruginosa (1051575): content of compound of formula (I) to restore the doxycycline activity (at 2 μg/mL): in combination with doxycycline 2 μg/mL, 24 h, 37°
P. aeruginosa ATCC27853 = assay: MIC determination by microplate dilution, P. aeruginosa human strain; assay type: cell-based, Pseudomonas aeruginosa; settings: Pseudomonas aeruginosa, ATCC27853, Gram-negative, Mueller-Hinton medium, 24 h, 37° C.
In short: (§4)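 Twofold dilution series of compounds (stock 5 mg/mL, DMSO/methanol 50/50) in Mueller-Hinton medium, seeded with bacteria at OD 0.01 from 24 h, 37 °C precultures. After 24 h at 37 °C under humid atmosphere, MIC derived from OD at 620 nm; run in duplicate.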

E. coli (1956) = assay: MIC determination by microplate dilution, E. coli animal strain; assay type: cell-based, Escherichia coli; settings: Escherichia coli, Gram-negative, Mueller-Hinton medium, 24 h, 37° C.
In short: as §4

CHO-K1 cells = assay: WST1 cytotoxicity test on CHO-K1 cells; assay type: cell-based, Chinese hamster; settings: Cricetulus griseus
In short: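 CHO-K1 cells seeded 24 h, then exposed to increasing compound concentrations in duplicate for 24 h at 37 °C, 5% CO2. Viability by WST-1 reduction (20 min, 37 °C), absorbance at 450 nm. IC50 = concentration reducing viability by 50%, from nonlinear regression of dose-response.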

E. faecalis ATCC29212 = assay: MIC determination by microplate dilution, E. faecalis human strain; assay type: cell-based, Enterococcus faecalis; settings: Enterococcus faecalis, ATCC29212, Gram-positive, Mueller-Hinton medium, 24 h, 37° C.
In short: as §4

S. aureus ATCC25923 = assay: MIC determination by microplate dilution, S. aureus human strain; assay type: cell-based, Staphylococcus aureus; settings: Staphylococcus aureus, ATCC25923, Gram-positive, Mueller-Hinton medium, 24 h, 37° C.
In short: as §4

E. coli ATCC28922 = assay: MIC determination by microplate dilution, E. coli human strain; assay type: cell-based, Escherichia coli; settings: Escherichia coli, ATCC28922, Gram-negative, Mueller-Hinton medium, 24 h, 37° C.
In short: as §4

P. aeruginosa (1051575) [4] = assay: Potentiation of ampicillin activity; assay type: cell-based, Pseudomonas aeruginosa; settings: concentration of compound required with ampicillin 4 μg/mL
Protocol: as §1, §2, §3

S. aureus (340) = assay: MIC determination by microplate dilution, S. aureus animal strain; assay type: cell-based, Staphylococcus aureus; settings: Staphylococcus aureus, Gram-positive, Mueller-Hinton medium, 24 h, 37° C.
In short: as §4

C. albicans = assay: Antifungal activity, cascade microdilution, C. albicans; assay type: cell-based, Candida albicans; settings: Candida albicans, 24 h, read-out: IC50 (μg/mL) C. albicans
S. intermedius (1051997) = assay: MIC determination by microplate dilution, S. intermedius animal strain; assay type: cell-based, Staphylococcus intermedius; settings: Staphylococcus intermedius, Gram-positive, Mueller-Hinton medium, 24 h, 37° C.
In short: as §4

P. aeruginosa (PAO1) = assay: MIC of doxycycline on P. aeruginosa PAO1; assay type: cell-based; settings: Pseudomonas aeruginosa; doxycycline alone; Gram-negative strain P. aeruginosa (PAO1)
Protocol: On the Gram-negative strain of P. aeruginosa (PAO1), doxycycline has an MIC of 40 μg/mL.

P. aeruginosa (1051575) [5] = assay: MIC determination by microplate dilution, P. aeruginosa animal strain; assay type: cell-based, Pseudomonas aeruginosa; settings: Pseudomonas aeruginosa, Gram-negative, Mueller-Hinton medium, 24 h, 37° C.
In short: as §4

[6] = CHO-K1, read-out: IC50 (μg/mL) CHO

| SMILES | MIC P. aeruginosa (1051575), compound + chloramphenicol (P. aeruginosa (1051575) [1]) [µg/mL] | MIC P. aeruginosa (1051575), compound + erythromycin (P. aeruginosa (1051575) [2]) [µg/mL] | MIC - P. aeruginosa (1051575): content of compound of formula (I) to restore the doxycycline activity (at 2 μg/mL) (P. aeruginosa (1051575) [3]) [µg/mL] | MIC (P. aeruginosa ATCC27853) [µg/mL] | MIC (E. coli (1956)) [µg/mL] | IC50 (CHO-K1 cells; [6]) [µg/mL] | MIC (E. faecalis ATCC29212) [µg/mL] | MIC (S. aureus ATCC25923) [µg/mL] | MIC (E. coli ATCC28922) [µg/mL] | MIC P. aeruginosa (1051575), compound + ampicillin (P. aeruginosa (1051575) [4]) [µg/mL] | MIC (S. aureus (340)) [µg/mL] | IC50 (C. albicans) [µg/mL] | MIC (S. intermedius (1051997)) [µg/mL] | MIC (P. aeruginosa (PAO1)) [µg/mL] | synergism with doxycycline (P. aeruginosa (1051575) [3]; administered with doxycycline at 2 μg/mL) | IC50 (CHO-K1 cells; CHO-K1, 24 h, read-out: IC50 (μg/mL) CHO) [µg/mL] | MIC (P. aeruginosa (1051575) [5]) [µg/mL] |
| --- | --- | --- | --- | --- | --- | --- | --- | --- | --- | --- | --- | --- | --- | --- | --- | --- | --- |
| CC(C)OC(=O)CC[C@@H](C)[C@H]1CCC2C3C(CC[C@@]21C)[C@@]1(C)CC[C@H](NCCN(CCN)CCN)CC1C[C@H]3O (stereo partly drawn) [(40), isopropyl 3β-(tris(2-aminoethyl)amine)chenodeoxycholate] | 4 | 56 | 4 | 56 (≈ 99.5 µM) | 28 (≈ 49.7 µM) | 140 (≈ 249 µM) | 14 (≈ 24.9 µM) | 14 (≈ 24.9 µM) | 14 (≈ 24.9 µM) | 28 | 14 (≈ 24.9 µM) | 7 (≈ 12.4 µM) | 7 (≈ 12.4 µM) |  |  |  |  |
| C[C@H]1c2cccc(O)c2C(=O)C2=C(O)[C@]3(O)C(=O)C(C(N)=O)=C(O)[C@@H](N(C)C)[C@@H]3[C@@H](O)[C@@H]21 [doxycycline] |  |  |  |  |  |  |  |  |  |  |  |  |  | 40 |  |  |  |
| CC(C)OC(=O)CC[C@@H](C)[C@H]1CCC2C3C(CC[C@@]21C)[C@@]1(C)CC[C@H](NCCCNCCCN)CC1C[C@H]3O (stereo partly drawn) [(11), isopropyl 3β-norspermidinochenodeoxycholate] | 2 | 28 | 1 |  |  | 140 (≈ 256 µM) | 3.5 (≈ 6.39 µM) | 7 (≈ 12.8 µM) | 14 (≈ 25.6 µM) | 56 | 2 (≈ 3.65 µM) | 4 (≈ 7.3 µM) | 2 (≈ 3.65 µM) |  | noteworthy synergism | 140 (≈ 256 µM) | 14 (≈ 25.6 µM) |
| CC(C)OC(=O)CC[C@@H](C)[C@H]1CCC2C3CCC4C[C@@H](NCCN(CCN)CCN)CC[C@]4(C)C3C[C@H](O)[C@@]21C (stereo partly drawn) [(29), isopropyl 3β-(tris(2-aminoethyl)amine)deoxycholate] | 7 | 56 | 4 | 56 (≈ 99.5 µM) | 28 (≈ 49.7 µM) |  | 28 (≈ 49.7 µM) | 28 (≈ 49.7 µM) | 14 (≈ 24.9 µM) | 56 | 14 (≈ 24.9 µM) |  | 14 (≈ 24.9 µM) |  |  |  | 56 (≈ 99.5 µM) |

— patent US20190255073A1, “ESTERS OF 3-POLYAMINE DERIVATIVES OF BILE ACIDS FOR THE TREATMENT OF INFECTIONS” (VIRBAC, priority 2016, published 2019)
